Measurements as given in patent US6566373B2, “Protease inhibitors” (SmithKline Beecham Corporation, priority 1997, dated 2003).
pKi: −log10 of the molar value. Counter-ions that a name gives are not always drawn.

What was measured:
cathepsin K = molecular target: T1, cathepsin K (Homo sapiens, UniProt P43235); experiment: Cathepsin K inhibition (progress curve method, fluorogenic substrate Cbz-Phe-Arg-AMC); assay type: biochemical; settings: human recombinant enzyme, 100 mM Na acetate pH 5.5
T1 sequence (P43235 115-329): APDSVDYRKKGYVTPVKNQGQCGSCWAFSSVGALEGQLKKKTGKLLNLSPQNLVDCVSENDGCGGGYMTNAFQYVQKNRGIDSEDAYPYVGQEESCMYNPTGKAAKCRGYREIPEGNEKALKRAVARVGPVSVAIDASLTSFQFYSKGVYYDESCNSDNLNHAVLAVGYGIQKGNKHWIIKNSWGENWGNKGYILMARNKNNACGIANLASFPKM
Protocol: Determination of Cathepsin K Proteolytic Catalytic Activity
All assays for cathepsin K were carried out with human recombinant enzyme. Standard assay conditions for the determination of kinetic constants used a fluorogenic peptide substrate, typically Cbz-Phe-Arg-AMC, and were determined in 100 mM Na acetate at pH 5.5 containing 20 mM cysteine and 5 mM EDTA. Stock substrate solutions were prepared at concentrations of 10 or 20 mM in DMSO with 20 μM final substrate concentration in the assays. All assays contained 10% DMSO. […] All assays were conducted at ambient temperature. Product fluorescence (excitation at 360 nm; emission at 460 nm) was monitored with a Perceptive Biosystems Cytofluor II fluorescent plate reader. […]
Potential inhibitors were evaluated using the progress curve method. […] For those compounds whose progress curves were linear, apparent inhibition constants (Ki,app) were calculated according to equation 1 (Brandt et al., Biochemitsry, 1989, 28, 140): […]
[AMC]=vSSt+(v0−vSS)[1−exp (−kobst)]/kobs (2) where [AMC] is the concentration of product formed over time t, v0 is the initial reaction velocity, and vSS is the final steady state rate. Values for kobs were then analyzed as a linear function of inhibitor concentration to generate an apparent second order rate constant (kobs/inhibitor concentration or kobs/[I]) describing the time-dependent inhibition. […]

Row | melting point [°C] | pKi (cathepsin K) | Structure (SMILES)
1 | 98 | – | CC(C)C[C@H](NS(=O)(=O)c1cccc2cccnc12)C(=O)NC1COCC1=O (mixture of isomers) (as salt: HCl) [Example 7, 4-(R,S)-Amino-N-[(8-quinolinesulfonyl)-S-leucine]-tetrahydrofuran-3-one]
2 | – | < 5.00 | CC(C)C[C@H](NS(=O)(=O)c1cccc2cccnc12)C(=O)NC1COCC1=O (mixture of isomers) [Example 7, 4-(R,S)-Amino-N-[(8-quinolinesulfonyl)-S-leucine]-tetrahydrofuran-3-one]
